Entries after “also recorded” stand apart in the source; their conditions may differ.
Key:
[1] = test system: primary rat neuronal cortical culture exposed to NMDA; assay: Neuroprotection from NMDA mediated cell death in primary neuronal culture (LDH release); assay type: cell-based; settings: for reduced LDH release: concentration not given
Description: Peptides of 5 amino acids in length were applied to one or more samples of cells in parallel at concentrations ranging from about 0 to about 50 μM, such as 0.3, 3, and 30 μM. The peptides AL-10-1 (SEQ ID NO:18) and VL-17-9 (SEQ ID NO:19), which are longer peptides (12 amino acids each) were used as negative and positive controls, respectively. A series of peptides were screened in primary rat neuronal cortical culture exposed to NMDA using the method described in Aono et al., Neuroscience (2003) 116:437 and Aono et al., Neurobiology of Disease (2002) 11:214, both of which are incorporated by reference in their entirety (see Table 2). Neuroprotection from NMDA mediated cell death in primary neuronal culture was expressed as percentage decrease in LDH, 24 hours after exposure to NMDA compared to vehicle treated cultures (Table 2). LDH release is indicative of neuronal death after NMDA exposure. The peptide VR-55 (SEQ ID NO:4) reduced NMDA mediated excitotoxic cell death by approximately 19% at a concentration of 1 μM. […] The positive control peptide VL-17-9 reduced LDH release by 31%.
Dose response of the neuroprotection from NMDA excitotoxicity in primary neuronal culture was determined for ApoE mimetic peptide VR-55 (SEQ ID NO: 4). […] “0” indicates less than 5% suppression; “+” indicates 5-10% suppression; “++” indicates 11-20% suppression; and “+++” indicates greater than 20% suppression. In addition to VL-17-9, several other candidates had greater than 20% suppression, including VR-55, VL-5-1, VL-5-2 and VR-52.

[2] = test system: mixed glial primary culture; assay: Suppression of TNF-α release in mixed glial primary culture after exposure to LPS; assay type: cell-based, murine; settings: FIGS. 11A and 11B
Description: (§1) In vitro methods have been developed using cultured cells for evaluating the ability of a compound, such as a peptide, to suppress glial activation. Laskowitz et al., (2001) Exp. Neurol., 167:74-85. Glial cell cultures were grown and maintained under standard conditions. Cultured glial cells may include primary murine mixed glial cell cultures, murine BV-2 microglial cells, and human C3 microglial cells. Adherent glial cells were washed with OptiMEM® medium (available from Invitrogen Corp.) to remove serum and covered with fresh OptiMEM® medium containing peptide.
Larger peptides or proteins may need to be tested at higher concentrations to observe measurable suppression of glial activation. If using primary murine cells and BV-2 cells, cells are stimulated with 100 ng/ml E. coli LPS (available from Sigma-Aldrich Co.), and supernatant is collected six hours after LPS stimulation and assayed for nitrite (using a colorimetric Griess reagent system, available from Promega Corp.) and/or TNF-α (using a solid-phase ELISA kit, available from Invitrogen Corp.). If using human C3 cells, cells are stimulated with 200 μg/ml polyinosinic acid 5′ (available from Sigma-Aldrich Co.), and supernatant is collected 5 days after stimulation and assayed for TNF-α using a solid-phase ELISA kit (available from Invitrogen Corp.).
The protective activity against brain injury-downregulating CNS inflammatory response was determined for ApoE mimetic peptides, VR-55 (SEQ ID NO: 4), VL-5-1 (SEQ ID NO: 5) and VL-5-3 (SEQ ID NO: 10).

[3] = test system: BV-2 murine microglial cells; assay: Suppression of LPS-stimulated TNF-α production in BV-2 microglial cells (ELISA); assay type: cell-based; settings: peptide 0.3, 3 or 30 μM; LPS 100 ng/mL, six hours; FIG. 1; listed as SEQ ID NO:3
Description: Cultured BV-2 murine microglial cells were incubated with either the indicated concentrations of peptide (SEQ ID NO:3) or a negative control peptide (SEQ ID NO:13) and stimulated with lipopolysaccharide (LPS) (100 ng/mL) for six hours. After six hours, supernatants were harvested and the concentration of secreted TNF-α was measured by ELISA (**p<0.01; ANOVA).
as §1
Larger peptides or proteins may need to be tested at higher concentrations to observe measurable suppression of glial activation. […]
Murine BV-2 cultures were prepared and used to evaluate suppression of microglial activation as described in Example 1. […] Each sample was stimulated with LPS and assessed for TNF-α production as described in Example 1.

[4] = test system: mice with traumatic brain injury; assay: Rotorod vestibulomotor function after traumatic brain injury; assay type: in vivo, mouse; settings: 0.05 mg/kg or 0.2 mg/kg iv at 2 h and 6 h after traumatic brain injury
Description: An experimental murine model for traumatic brain injury was developed. Laskowitz, et al. (2010) J. Neurotrauma, 27:1983-95. Male mice (age 12-14 weeks) were anesthetized with 4.3% isoflurane in oxygen in an anesthesia induction box for 90 seconds. The trachea was intubated and the lungs mechanically ventilated with 1.4% isoflurane in a 50/50 mixture of oxygen and nitrogen. Body temperature was maintained at 37° C. using surface heating/cooling. The top of the skull was exposed by a midline incision to identify anatomical landmarks, and a concave 3-mm metallic disc was secured to the skull surface with an adhesive, directly midline and just caudal to the bregma. The disc diffused the energy of impact and reduced the incidence of depressed skull fracture to less than 10%. After general anesthesia, mice were positioned in a stereotactic device and the skull was exposed. A pneumatic impactor (diameter: 2.0 mm; available from Air-Power, Inc.) discharged at 6.8±0.2 m/s with a head displacement of 3 mm was used to deliver a single midline impact to the disc surface.
An experimental procedure for measuring neurological deficits was developed. An automated rotorod (available from Ugo Basile North America, Inc.) was used to assess vestibulomotor function. On the day before experimental induction of a neurological condition or injury (such as, for example, traumatic brain injury or intracerebral hemorrhage as described above), mice under went two consecutive conditioning trials at a set rotational speed (16 revolutions per minute) for 60 seconds followed by three additional trials with an accelerating rotational speed. The average time to fall from the rotating cylinder in the latter three trials was recorded as baseline latency. After injury, mice under went consecutive daily testing with three trials of accelerating rotational speed (intertribal interval of 15 minutes). Average latency to fall from the rod was recorded, and mice unable to grip the rod were scored with a latency of 0 seconds.
Groups of mice received either an ApoE mimetic peptide (SEQ ID NO:3; 0.05 mg/kg or 0.2 mg/kg) or carrier (saline) by intravenous tail vein injection at 2 hours and again at 6 hours after traumatic brain injury induced as described in Example 3. Each mouse was tested for vestibulomotor function by rotorod latency measured before and after injury, as described in Example 3.
Groups of mice received either an ApoE mimetic peptide (SEQ ID NO:4; 0.05 mg/kg) or carrier (saline) by intravenous tail vein injection at 2 hours and again at 6 hours after traumatic brain injury induced as described in Example 3. Each mouse was tested for vestibulomotor function by rotorod latency measured before and after injury, as described in Example 3. […]

Substance	percentage decrease in LDH, 24 hours after exposure to NMDA compared to vehicle treated cultures ([1]; peptide 1 μM) [%]	suppression of LDH release, cumulative data (class) ([1]; peptide 1 μM)	further results
Ac-ASHLRKLRKRLL-NH2 [AL-10-1, reference compound]	−6.21	0 (less than 5% suppression)	
Ac-LRVRLASLLRKL-NH2 [VL-17-9, longer peptide (12 amino acids) used as positive control, reference compound]	30.95	+++ (greater than 20% suppression)	reduced LDH release [1]: 31%; percentage decrease in LDH, 24 hours after exposure to NMDA compared to vehicle treated cultures ([1]; peptide 0.1 μM): 16.19%
Ac-RARRL-NH2 [RL-5-2]	−5.23	0 (less than 5% suppression)	
Ac-RHKKL-NH2 [RL-5-1]	−2.85	++ (11-20% suppression)	
Ac-RHKRR-NH2 [RR-5-1]	7.50	+ (5-10% suppression)	
Ac-RSKKL-NH2 [RL-5-3]	−20.80	0 (less than 5% suppression)	
Ac-RSKRR-NH2 [RR-5-2]	0.08	0 (less than 5% suppression)	
Ac-VARKL-NH2 [VL-5-1]	24.48	+++ (greater than 20% suppression)	release of inflammatory cytokine TNF-α [2]: inhibition of microglial TNF-α secretion; also recorded: suppress the release of inflammatory cytokine TNF-α; percentage decrease in LDH, 24 hours after exposure to NMDA compared to vehicle treated cultures ([1]; peptide 0.1 μM): 18.57%; percentage decrease in LDH, 24 hours after exposure to NMDA compared to vehicle treated cultures ([1]; peptide 0.3 μM): 0.29%
Ac-VARKL-NH2 [VL-5-2]	34.26	+++ (greater than 20% suppression)	reduced LDH release [1]: 31%
Ac-VARRL-NH2 [VL-5-3]	11.50	++ (11-20% suppression)	release of inflammatory cytokine TNF-α [2]: inhibition of microglial TNF-α secretion; also recorded: suppress the release of inflammatory cytokine TNF-α; percentage decrease in LDH, 24 hours after exposure to NMDA compared to vehicle treated cultures ([1]; peptide 0.1 μM): −19.04%; percentage decrease in LDH, 24 hours after exposure to NMDA compared to vehicle treated cultures ([1]; peptide 0.3 μM): −16.70%
Ac-VSKKR-NH2 [VR-54, negative control peptide, reference compound]	−15.91	++ (11-20% suppression)	
Ac-VSKRR-NH2 [VR-53]	7.03	+ (5-10% suppression)	TNF-α production relative to untreated cells or negative control peptide [3]: inhibition of microglial TNF-α secretion; also recorded: decreased TNF-α production; durability of effect on rotorod latency [4]: durable through the five-day testing period; vestibulomotor performance (rotorod latency) compared to carrier ([4]; FIG. 2, listed as SEQ ID NO:3): significantly improved vestibulomotor performance
Ac-VSRKR-NH2 [VR-52]	12.63	+++ (greater than 20% suppression)	
